# Experiments:
# MGC803 = test: MTT solid tumor cell proliferation inhibition, MGC803; format: cell-based, human; details: Homo sapiens, MGC-803
# Experimental: (§1) Human solid tumor cell lines: Hep-2 (laryngeal carcinoma), A549 (human lung cancer), CaES-17 (esophageal cancer cell), PC-3 (prostate cancer), CNE (nasopharyngeal carcinoma cell), and SK-OV-3 (ovarian cancer cell), all of which are purchased from China Center For Type Culture Collection; RKO (human colon adenocarcinoma cell), MGC 803 (human gastric cancer cell), MG63 (osteosarcoma) and U87 MG (malignant glioma cell), all of which are purchased from Fuxiang Bio-tech Co. Ltd., Shanghai, China; PANC-1 (pancreatic cancer), Hep G2 (human liver cancer cell), Becap37 (human breast cancer cell), and Hela (human cervical cancer cell), all of which are donated by Cancer Research Institute of Zhejiang University, China.
# (§2) Obtaining 4000 well-growing human solid tumor cells and inoculating them into wells of a 96-well cell culture plate. The culture medium is DMEM High Glucose cell culture medium containing 10% fetal bovine serum. The plate is placed in a carbon dioxide cell incubator (5% CO2) at 37° C. for 24 hours for incubation. After being added with the amidated oleanolic acid derivatives of different concentrations and mixed uniformly, the plate is placed in a carbon dioxide cell incubator (5% CO2) at 37° C. for 72 hours for incubation. Then the relative number of the living cells is determined by the MTT method. In this experiment, the cell proliferation inhibition rate in control group (not treated with any compound) is set as 0%.
# A549 = test: MTT solid tumor cell proliferation inhibition, A549; format: cell-based, human
# Experimental: as §1, §2
# RPMI8226 = test: MTT multiple myeloma cell proliferation inhibition, RPMI8226; format: cell-based; details: Homo sapiens, RPMI-8226
# Experimental: Multiple myeloma cell lines: RPMI8226 (multiple myeloma), purchased from Fuxiang Bio-tech Co. Ltd., Shanghai, China.
# (§3) Obtaining 6000 well-growing leukemia cells and inoculating them into wells of a 96-well cell culture plate. The culture medium is the 1640 cell culture medium containing 10% fetal bovine serum. After adding the amidated oleanolic acid derivatives of different concentrations and mixing uniformly, placing the plate in a carbon dioxide cell incubator (5% CO2) at 37° C. and incubated for 72 hours. Then the relative number of viable cells is determined by the MTT method. In this experiment, the cell proliferation inhibition rate in control group (not treated with any compound) is set as 0%.
# U87 MG = test: MTT solid tumor cell proliferation inhibition, U87 MG; format: cell-based, human
# Experimental: as §1, §2
# Hep-2 = test: MTT solid tumor cell proliferation inhibition, Hep-2; format: cell-based, human
# Experimental: as §1, §2
# PANC-1 = test: MTT solid tumor cell proliferation inhibition, PANC-1; format: cell-based, human; details: Homo sapiens
# Experimental: as §1, §2
# CaES-17 = test: MTT solid tumor cell proliferation inhibition, CaES-17; format: cell-based, human
# Experimental: as §1, §2
# PC-3 = test: MTT solid tumor cell proliferation inhibition, PC-3; format: cell-based, human; details: Homo sapiens
# Experimental: as §1, §2
# SK-OV-3 = test: MTT solid tumor cell proliferation inhibition, SK-OV-3; format: cell-based, human; details: Homo sapiens
# Experimental: as §1, §2
# MG 63 = test: MTT solid tumor cell proliferation inhibition, MG 63; format: cell-based, human
# Experimental: as §1, §2
# Hep G2 = test: MTT solid tumor cell proliferation inhibition, Hep G2; format: cell-based; details: Homo sapiens, HepG2
# Experimental: as §1, §2
# Hela = test: MTT solid tumor cell proliferation inhibition, Hela; format: cell-based, human; details: Homo sapiens, Hela, 72 h
# Experimental: as §1, §2
# Kasumi-1 = test: MTT leukemia cell proliferation inhibition, Kasumi-1; format: cell-based; details: Homo sapiens
# Text: (§4) Leukemia cell lines: leukemia cell lines: K562/adr (drug-resistant, chronic myeloid leukemia, CML), NB4 (acute promyelocytic leukemia, AML), Kasumi-1 (acute myeloid leukemia M2 type, AML-M2), Jurkat (acute lymphoblastic leukemia, ALL), all of which are donated by Cancer Research Institute of Zhejiang University, China; and H9 (acute lymphoblastic leukemia, ALL), which is purchased from China Center for Type Culture Collection (CCTCC).
# (§5) Reagents: The standard sample of oleanolic acid (OA) is purchased from Hua Kang Pharmaceutical Raw Material Factory, Shifang City, Sichuan, China; and the amidated oleanolic acid derivatives are prepared according to the present invention.
# as §3
# H9 = test: MTT leukemia cell proliferation inhibition, H9; format: cell-based, human; details: Homo sapiens
# Text: as §4, §5, §3
# RKO = test: MTT solid tumor cell proliferation inhibition, RKO; format: cell-based; details: Homo sapiens, 72 h
# Experimental: as §1, §2
# NB4 = test: MTT leukemia cell proliferation inhibition, NB4; format: cell-based; details: Homo sapiens, NB-4
# Text: as §4, §5, §3
# K562/adr = test: MTT leukemia cell proliferation inhibition, K562/adr; format: cell-based; details: Homo sapiens, 72 h
# Text: as §4, §5, §3
# CNE = test: MTT solid tumor cell proliferation inhibition, CNE; format: cell-based, human; details: Homo sapiens, CNE, 72 h
# Experimental: as §1, §2
# Becap37 = test: MTT solid tumor cell proliferation inhibition, Becap37; format: cell-based; details: Homo sapiens
# Experimental: as §1, §2
# Jurkat = test: MTT leukemia cell proliferation inhibition, Jurkat; format: cell-based; details: Homo sapiens, 72 h
# Text: as §4, §5, §3
# [1] = 16 μg/mL compound, read-out: IR (inhibition rate)
smiles,measurement,setting,value
CC1(C)CC[C@]2(NC(=O)c3ccco3)CC[C@]3(C)C(=CC[C@@H]4[C@@]5(C)CC[C@H](O)C(C)(C)[C@@H]5CC[C@]43C)[C@@H]2C1 [BS-OA-099],inhibition at 16 µg/mL,"MGC803; MGC803, 16 μg/mL compound, 72 h, read-out: IR (inhibition rate)",50%
same,IC50,"MGC803; MGC803, 72 h, MTT",16 mg/L
same,improvement of cell inhibition rate as compared with oleanolic acid,A549; A549 cells,more than 4 fold
same,inhibition at 16 µg/mL,"A549; Homo sapiens, A549, 16 μg/mL compound, 72 h, read-out: IR (inhibition rate)",75%
same,IC50,"A549; Homo sapiens, A549, 72 h, MTT",15 mg/L
same,inhibition at 16 µg/mL,"RPMI8226; RPMI8226, 16 μg/mL compound, 72 h, read-out: IR (inhibition rate)",98.9%
same,IC50,"RPMI8226; RPMI8226, 72 h, MTT",5.79 mg/L
same,inhibition at 16 µg/mL,"U87 MG; Homo sapiens, U-87 MG, U87 MG, 16 μg/mL compound, 72 h, read-out: IR (inhibition rate)",47.9%
same,IC50,"U87 MG; Homo sapiens, U-87 MG, U87 MG, 72 h, MTT",16 mg/L
same,improvement of cell inhibition rate as compared with oleanolic acid,U87 MG; U87 MG cells,more than 2 fold
same,improvement of cell inhibition rate as compared with oleanolic acid,Hep-2; Hep-2 cells,more than 3 fold
same,inhibition at 16 µg/mL,"Hep-2; Homo sapiens, Hep-2, 16 μg/mL compound, 72 h, read-out: IR (inhibition rate)",37.3%
same,IC50,"Hep-2; Homo sapiens, Hep-2, 72 h, MTT",> 16 mg/L
same,inhibition at 16 µg/mL,"PANC-1; PANC-1, 16 μg/mL compound, 72 h, read-out: IR (inhibition rate)",34.3%
same,IC50,"PANC-1; PANC-1, 72 h, MTT",> 16 mg/L
same,improvement of cell inhibition rate as compared with oleanolic acid,CaES-17; CaES-17 cells,more than 2 fold
same,inhibition at 16 µg/mL,"CaES-17; Homo sapiens, CaEs17, CaES-17, 16 μg/mL compound, 72 h, read-out: IR (inhibition rate)",66.6%
same,IC50,"CaES-17; Homo sapiens, CaEs17, CaES-17, 72 h, MTT",12.4 mg/L
same,inhibition at 16 µg/mL,"PC-3; PC-3, 16 μg/mL compound, 72 h, read-out: IR (inhibition rate)",47.2%
same,IC50,"PC-3; PC-3, 72 h, MTT",19.5 mg/L
same,inhibition at 16 µg/mL,"SK-OV-3; SK-OV-3, 16 μg/mL compound, 72 h, read-out: IR (inhibition rate)",43.2%
same,IC50,"SK-OV-3; SK-OV-3, 72 h, MTT",> 16 mg/L
same,IC50,"MG 63; Homo sapiens, MG 63, 72 h, MTT",15.1 mg/L
same,IR (inhibition rate),"MG 63; MG 63, 16 μg/mL compound, 72 h",58.9%
same,inhibition at 16 µg/mL,"Hep G2; Hep G2, 16 μg/mL compound, 72 h, read-out: IR (inhibition rate)",25.3%
same,IC50,"Hep G2; Hep G2, 72 h, MTT",> 16 mg/L
same,inhibition at 16 µg/mL,Hela; [1],72.9%
same,IC50,Hela; MTT,12.6 mg/L
same,inhibition at 16 µg/mL,"Kasumi-1; Kasumi-1, 16 μg/mL compound, 72 h, read-out: IR (inhibition rate)",69.1%
same,IC50,"Kasumi-1; Kasumi-1, 72 h, MTT",13.1 mg/L
same,inhibition at 16 µg/mL,"H9; H9, 16 μg/mL compound, 72 h, read-out: IR (inhibition rate)",59.8%
same,IC50,"H9; H9, 72 h, MTT",14 mg/L
same,inhibition at 16 µg/mL,RKO; [1],63.1%
same,IC50,RKO; MTT,14.3 mg/L
same,inhibition at 16 µg/mL,"NB4; NB4, 16 μg/mL compound, 72 h, read-out: IR (inhibition rate)",100%
same,IC50,"NB4; NB4, 72 h, MTT",9.17 mg/L
same,inhibition at 16 µg/mL,K562/adr; [1],97.1%
same,IC50,K562/adr; MTT,5.26 mg/L
same,inhibition at 16 µg/mL,CNE; [1],42.4%
same,IC50,CNE; MTT,> 16 mg/L
same,inhibition at 16 µg/mL,"Becap37; Becap37, 16 μg/mL compound, 72 h, read-out: IR (inhibition rate)",35.1%
same,IC50,"Becap37; Becap37, 72 h, MTT",> 16 mg/L
same,inhibition at 16 µg/mL,Jurkat; [1],63.6%
same,IC50,Jurkat; MTT,14.5 mg/L
